Publication PMC10786919, “Design-rules for stapled peptides with in vivo activity and their application to Mdm2/X antagonists” (Nature Communications, 2024)
Values after ≈ are worked out from the molar mass of the structure shown. Read-outs that look alike come from different tables or passages of the source. Positions of bridges follow the written chain, without caps; N, C: chain ends. Non-standard residues stand in square brackets, D forms with d. Residues, ends and D or L forms follow the SMILES beside them. Lys(N3) = [N-]=[N+]=NCCCC[C@H](N)C(=O)O; hArg = N=C(N)NCCCC[C@H](N)C(=O)O; R8 = C=CCCCCCC[C@@](C)(N)C(=O)O; Cba = N[C@@H](CC1CCC1)C(=O)O; S5 = C=CCCC[C@](C)(N)C(=O)O; βAla = NCCC(=O)O; Sar = CNCC(=O)O

How the values were obtained:
[1] = test system: HCT116 cells; experiment: Lactate dehydrogenase (LDH) release assay; type: cell-based
Method in brief: (§1)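 LDH release, fluorometric membrane-integrity read-out; HCT116 with stable p53-responsive β-lactamase reporter; 8000 cells/well; 0.5% DMSO final; geometric mean, n≥3 biological replicates.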

[2] = Lactate dehydrogenase (LDH) release assay; type: cell-based
Method in brief: as §1

[3] = Solubility assay (kinetic solubility, PBS pH 7); type: physicochemical; details: pH 7, PBS; for solubility kinetic: pH 7, aqueous buffer, kinetic from dmso stock, read-out: Solubility
Method in brief: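 Values derive from peak-area ratios of sample versus a 100 µM standard, scaled by that standard's concentration.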

[4] = Experimental LogD (partition coefficient); details: for logD: not stated, Partition Coeff LogD
[5] = physchem
[6] = in vitro
Method in brief: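 Azido-peptide permeability was read as loss of NanoBRET signal (donor 450 nm, acceptor 610 nm) after adding NanoBret618-azide at 10 μM final.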

[7] = Nanoclick permeability assay EC50

Compound | LDH: Cytotoxicity assay: % Effect [1] | EC50 ([2]; LDH: Cytotoxicity assay: EC50) | Solubility [3] | logD [4] | EPSA [5] | cell entry EC50 [6, 7] | solubility kinetic [3] | EC50 ([2]; 0% FBS 4Hr, read-out: LDH: Cytotoxicity assay: EC50) | EC50 ([2]; 4 hours, 0% serum, read-out: LDH Cytotoxicity assay EC50) | cell entry EC50 [6] | Partition Coeff LogD [4]
CC(C)C[C@@H]1NC(=O)[C@H](C)NC(=O)[C@H](Cc2c[nH]c3ccccc23)NC(=O)[C@H](Cc2ccc(O)cc2)NC(=O)[C@H](CCC(=O)O)NC(=O)[C@](C)(NC(=O)[C@H](Cc2ccccc2)NC(=O)[C@H](CO)NC(=O)[C@@H](NC(=O)[C@H](CO)NC(=O)CNC(=O)[C@@H](N)CCCCN=[N+]=[N-])[C@@H](C)O)CCCCCCC=CCCC[C@@](C)(C(N)=O)NC(=O)[C@H](CC(C)C)NC1=O [MP-0179] | 3.75% | > 50600 nM | Poorly Behaved | 2.57 | 230 A^2 | 503 nM |  |  |  |  | 
CC(=O)N[C@@H](CCCCN=[N+]=[N-])C(=O)NCCC(=O)N[C@@H](CC(C)C)C(=O)N[C@@H](CCCCNC(=N)N)C(=O)N[C@@H](Cc1ccccc1)C(=O)N[C@]1(C)CCCCCCC=CCCC[C@@](C)(C(=O)N[C@@H](CO)C(=O)N[C@@H](C)C(=O)N[C@@H](C)C(N)=O)NC(=O)[C@H](CC2CCC2)NC(=O)[C@H](CCC(N)=O)NC(=O)[C@H](C)NC(=O)[C@H](Cc2c[nH]c3ccccc23)NC(=O)[C@H](Cc2ccc(O)cc2)NC(=O)[C@H](CCC(=O)O)NC1=O [MP-6897] (Ac-[Lys(N3)][βAla]L[hArg]F[R8]EYWAQ[Cba][S5]SAA-NH2; staple 6-13) |  | > 50600 nM |  | 2.94 | 210 A^2 | 1510 nM | 9 µM (≈ 18.4 µg/mL) |  |  |  | 
CC(=O)N[C@@H](CCCCN=[N+]=[N-])C(=O)NCCC(=O)N[C@@H](CC(C)C)C(=O)N[C@H](C(=O)N[C@@H](C)C(=O)N[C@]1(C)CCCCCCC=CCCC[C@@](C)(C(=O)N[C@@H](CO)C(=O)N[C@@H](C)C(=O)N[C@@H](C)C(N)=O)NC(=O)[C@H](CC2CCC2)NC(=O)[C@H](CCC(N)=O)NC(=O)[C@H](C)NC(=O)[C@H](Cc2c[nH]c3ccccc23)NC(=O)[C@H](Cc2ccc(O)cc2)NC(=O)[C@H](CCC(=O)O)NC1=O)[C@@H](C)O [MP-892, AZIDE-ATSP-7041 (F3A)] |  |  |  | 2.54 | 201 A^2 |  | 101 µM (≈ 191 µg/mL) | > 50600 nM | > 50000 nM | 465 nM | 
CC(=O)N[C@@H](CCCCN=[N+]=[N-])C(=O)NCCC(=O)N(C)CC(=O)N[C@H](C(=O)N[C@@H](Cc1ccccc1)C(=O)N[C@]1(C)CCCCCCC=CCCC[C@@](C)(C(=O)N[C@@H](CO)C(=O)N[C@@H](C)C(=O)N[C@@H](C)C(N)=O)NC(=O)[C@H](CC2CCC2)NC(=O)[C@H](CCC(N)=O)NC(=O)[C@H](C)NC(=O)[C@H](Cc2c[nH]c3ccccc23)NC(=O)[C@H](Cc2ccc(O)cc2)NC(=O)[C@H](CCC(=O)O)NC1=O)[C@@H](C)O [MP-799] (Ac-[Lys(N3)][βAla][Sar]TF[R8]EYWAQ[Cba][S5]SAA-NH2; staple 6-13) |  | > 50600 nM |  | 2.6 | 219 A^2 | > 10000 nM | 82.5 µM (≈ 159 µg/mL) |  |  |  | 
CC(=O)N[C@@H](CCCCN=[N+]=[N-])C(=O)NCCC(=O)N[C@@H](CC(C)C)C(=O)N[C@H](C(=O)N[C@@H](Cc1ccccc1)C(=O)N[C@]1(C)CCCCCCC=CCCC[C@@](C)(C(=O)N[C@@H](CO)C(=O)N[C@@H](C)C(=O)N[C@@H](C)C(N)=O)NC(=O)[C@H](CC2CCC2)NC(=O)[C@@H]2CCCN2C(=O)[C@H](C)NC(=O)[C@H](Cc2c[nH]c3ccccc23)NC(=O)[C@H](Cc2ccc(O)cc2)NC(=O)[C@H](CCC(=O)O)NC1=O)[C@@H](C)O [MP-260] (Ac-[Lys(N3)][βAla]LTF[R8]EYWAP[Cba][S5]SAA-NH2; staple 6-13) |  | > 50600 nM | Poorly Behaved |  | 197 A^2 | 246 nM |  |  |  |  | Poorly Behaved
CC(=O)N[C@@H](CCCCN=[N+]=[N-])C(=O)NCCC(=O)N[C@@H](CC(C)C)C(=O)N[C@H](C(=O)N[C@@H](Cc1ccccc1)C(=O)N[C@]1(C)CCCCCCC=CCCC[C@@](C)(C(=O)N[C@@H](CO)C(=O)N[C@@H](C)C(=O)N(C)CC(N)=O)NC(=O)[C@H](CC2CCC2)NC(=O)[C@H](CCC(N)=O)NC(=O)[C@H](C)NC(=O)[C@H](Cc2c[nH]c3ccccc23)NC(=O)[C@H](Cc2ccc(O)cc2)NC(=O)[C@H](CCC(=O)O)NC1=O)[C@@H](C)O [MP-566] (Ac-[Lys(N3)][βAla]LTF[R8]EYWAQ[Cba][S5]SA[Sar]-NH2; staple 6-13) |  | > 50600 nM |  | 2.69 | 204 A^2 | 132 nM | 87.5 µM (≈ 172 µg/mL) |  |  |  | 
CC(=O)N[C@@H](CCCCN=[N+]=[N-])C(=O)NCCC(=O)N[C@@H](CC(C)C)C(=O)N[C@H](C(=O)N[C@@H](Cc1ccccc1)C(=O)N[C@]1(C)CCCCCCC=CCCC[C@@](C)(C(=O)N[C@@H](CO)C(=O)N[C@@H](C)C(=O)N[C@@H](C)C(N)=O)NC(=O)[C@H](CC2CCC2)NC(=O)[C@H](CCC(N)=O)NC(=O)[C@H](C)NC(=O)[C@H](Cc2c[nH]c3ccccc23)NC(=O)[C@H](Cc2ccc(O)cc2)NC(=O)CNC1=O)[C@@H](C)O [MP-210] (Ac-[Lys(N3)][βAla]LTF[R8]GYWAQ[Cba][S5]SAA-NH2; staple 6-13) |  | > 50600 nM |  | 3.35 | 198 A^2 | 279 nM | 2 µM (≈ 3.8 µg/mL) |  |  |  | 
CC(=O)N[C@@H](CCCCN=[N+]=[N-])C(=O)NCCC(=O)N[C@@H](CC(C)C)C(=O)N[C@H](C(=O)N[C@@H](Cc1ccccc1)C(=O)N[C@]1(C)CCCCCCC=CCCC[C@@](C)(C(=O)N[C@@H](CO)C(=O)N[C@@H](C)C(=O)N[C@@H](C)C(N)=O)NC(=O)[C@H](CC2CCC2)NC(=O)[C@@H](C)NC(=O)[C@H](C)NC(=O)[C@H](Cc2c[nH]c3ccccc23)NC(=O)[C@H](Cc2ccc(O)cc2)NC(=O)[C@H](CCC(=O)O)NC1=O)[C@@H](C)O [MP-474] (Ac-[Lys(N3)][βAla]LTF[R8]EYWA[dA][Cba][S5]SAA-NH2; staple 6-13) |  | > 50000 nM |  | 3.07 | 222 A^2 | 148 nM | 156 µM (≈ 298 µg/mL) |  |  |  | 
CC(C)C[C@H](NC(=O)CCNC(=O)[C@@H](N)CCCCN=[N+]=[N-])C(=O)N[C@H](C(=O)N[C@@H](Cc1ccccc1)C(=O)N[C@]1(C)CCCCCCC=CCCC[C@@](C)(C(N)=O)NC(=O)[C@H](CC2CCC2)NC(=O)[C@H](CCC(N)=O)NC(=O)[C@H](C)NC(=O)[C@H](Cc2c[nH]c3ccccc23)NC(=O)[C@H](Cc2ccc(O)cc2)NC(=O)[C@H](CCC(=O)O)NC1=O)[C@@H](C)O [MP-327] (H-[Lys(N3)][βAla]LTF[R8]EYWAQ[Cba][S5]-NH2; staple 6-13) | 39.84% | > 50600 nM |  | 2.83 | 228 A^2 | > 10000 nM |  |  |  |  | 
CC(=O)N[C@@H](CCCCN=[N+]=[N-])C(=O)NCCC(=O)N[C@@H](CC(C)C)C(=O)N[C@H](C(=O)N[C@@H](Cc1ccccc1)C(=O)N[C@]1(C)CCCCCCC=CCCC[C@@](C)(C(=O)N[C@H](C)C(=O)N[C@@H](C)C(=O)N[C@@H](C)C(N)=O)NC(=O)[C@H](CC2CCC2)NC(=O)[C@H](CCC(N)=O)NC(=O)[C@H](C)NC(=O)[C@H](Cc2c[nH]c3ccccc23)NC(=O)[C@H](Cc2ccc(O)cc2)NC(=O)[C@H](CCC(=O)O)NC1=O)[C@@H](C)O [MP-475] (Ac-[Lys(N3)][βAla]LTF[R8]EYWAQ[Cba][S5][dA]AA-NH2; staple 6-13) |  | > 50000 nM |  | 2.92 | 224 A^2 | 155 nM | 17 µM (≈ 33.2 µg/mL) |  |  |  | 
